Reference: US20260226073A1 (AURIGENE ONCOLOGY LIMITED, priority 2023, published 2026)

Target: T1, human recombinant CBL-b (human Biotin CBL-b recombinant protein a.a. 39-426) (Homo sapiens, UniProt Q13191)
T1 construct: human Biotin CBL-b recombinant protein a.a; 39-426; Biotin (biotinylated); made in house
Assay: Biochemical assay for CBL-b inhibition (ligand displacement TR-FRET)
Type: binding
Conditions: 50 nM CBL-b, 0.3 μM Bodipy FL-Probe, read-out: IC50 (CBL-b inhibition, group)
Method: The inhibitory activity of the test compounds was assessed by Ligand displacement TR-FRET assay. The human recombinant CBL-b (human Biotin CBL-b recombinant protein a.a. 39-426; synthesised in-house) was diluted in enzyme assay buffer (20 mM HEPES, 150 mM NaCl, 0.01% Triton X, 0.01% BSA, 0.5 mM TCEP) in a 10 μl volume and plated in 384-well plates (Cat #781075, Greiner) to a final concentration of 50 nM. The enzyme/compound mixture was incubated at RT for 60 min. The Bodipy FL-Probe described in WO 2020/210508 (synthesized in-house) diluted in enzyme assay buffer was added to the plate and incubated for 60 min RT, the final probe concentration was 0.3 μM. After 60 min incubation, 10 μl of detection mix (Terbium Streptavidin, (Cat #PV3576, Invitrogen) diluted in 1× Lance buffer) was added and incubated for 60 min at room temperature. Time-resolved fluorescence (excitation, 320 nm; emission donor, 615 nm; emission acceptor, 665 nm) was monitored by using 2030 multilabel reader Victor5 (PerkinElmer). The IC50 (concentration for half maximal inhibition) and % maximum inhibition of the compounds were estimated by fitting the dose response data to a sigmoidal curve fitting equation using Graph pad Prism software V. 8.

T1 sequence (Q13191 39-426): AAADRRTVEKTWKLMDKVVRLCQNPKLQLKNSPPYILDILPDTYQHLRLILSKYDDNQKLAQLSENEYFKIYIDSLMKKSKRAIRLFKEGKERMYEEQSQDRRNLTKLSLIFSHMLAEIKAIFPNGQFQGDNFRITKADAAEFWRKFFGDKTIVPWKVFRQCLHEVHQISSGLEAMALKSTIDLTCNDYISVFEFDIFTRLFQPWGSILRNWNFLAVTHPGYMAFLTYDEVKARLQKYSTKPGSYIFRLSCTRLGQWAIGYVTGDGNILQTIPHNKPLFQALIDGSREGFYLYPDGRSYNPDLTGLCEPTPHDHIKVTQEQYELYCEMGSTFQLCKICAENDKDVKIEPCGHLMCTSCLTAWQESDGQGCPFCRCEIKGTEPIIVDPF

SMILES | IC50 [nM]
C[C@H]1CCCN(Cc2cc(N3Cc4ccc(C5(Cc6nncn6C)COC5)cc4C3=O)nc(C(F)(F)F)c2)[C@H]1C [Compound 138] | 300 to 5000
CC(C)C(Cc1nncn1C)c1ccc2c(c1)C(=O)N(c1cc(CN3CCC[C@H](C)C3)cc(Cl)n1)C2 (some centres unmarked) [Compound 165] | 300 to 5000
C[C@H]1CCCN(Cc2cc(Cl)nc(N3Cc4ccc(C(Cc5nncn5C)C5CCC5)cc4C3=O)c2)C1 (some centres unmarked) [Compound 173] | 300 to 5000
C[C@@H]1CN(Cc2cc(Cl)nc(N3Cc4ccc(C5(Cc6nncn6C)COC5)cc4C3=O)c2)C[C@@H](C)O1 [Compound 177] | 300 to 5000
C[C@@H]1CN(Cc2cc(Cl)nc(N3Cc4ccc(C5(Cc6nncn6C)COC5)cc4C3=O)c2)C[C@H](C)O1 [Compound 191] | 300 to 5000
Cn1cnnc1CC1(c2ccc3c(c2)C(=O)N(c2cc(CN4CCC5OCCC54)cc(Cl)n2)C3)COC1 (centres unmarked) [Compound 192] | 300 to 5000
CC1CCCN1Cc1cc(Cl)nc(N2Cc3ccc(C4(Cc5nncn5C)COC4)cc3C2=O)c1 (centres unmarked) [Compound 200] | 300 to 5000
Cn1cnnc1CC1(c2ccc3c(c2)C(=O)N(c2cc(CNCc4ncco4)cc(Cl)n2)C3)COC1 [Compound 208] | 300 to 5000
Cn1cc(CNCc2cc(Cl)nc(N3Cc4ccc(C5(Cc6nncn6C)COC5)cc4C3=O)c2)cn1 [Compound 211] | 300 to 5000
Cn1ccc(CNCc2cc(Cl)nc(N3Cc4ccc(C5(Cc6nncn6C)COC5)cc4C3=O)c2)n1 [Compound 212] | 300 to 5000
Cn1cnnc1CC1(c2ccc3c(c2)C(=O)N(c2cc(CNC(C)(C)C4CC4)cc(Cl)n2)C3)COC1 [Compound 228] | 300 to 5000
Cc1cccc(CNCc2cc(Cl)nc(N3Cc4ccc(C5(Cc6nncn6C)COC5)cc4C3=O)c2)n1 [Compound 229] | 300 to 5000
Cc1ccnc(CNCc2cc(Cl)nc(N3Cc4ccc(C5(Cc6nncn6C)COC5)cc4C3=O)c2)c1 [Compound 236] | 300 to 5000
CC1CCNC(c2cc(Cl)nc(N3Cc4ccc(C5(Cc6nncn6C)COC5)cc4C3=O)c2)C1 (centres unmarked) [Compound 249] | 300 to 5000
Cc1cc(CNCC2CC2)cc(N2Cc3ccc(-c4ccc(F)c(F)c4-c4nncn4C)cc3C2=O)n1 [Compound 257] | 300 to 5000
Cc1cc(CNCC2CC2)cc(N2Cc3ccc(-c4cccnc4-c4nncn4C)cc3C2=O)n1 [Compound 266] | 300 to 5000
Cc1cc(CNCC2CC2)cc(N2Cc3ccc(-c4ccc(Cl)cc4-c4nnc5ccccn45)cc3C2=O)n1 [Compound 268] | 300 to 5000

SMILES | IC50 [nM]
Cc1cc(CNCC2CC2)cc(N2Cc3ccc(-c4cc(Cl)ccc4-c4nncn4C)cc3C2=O)n1 [Compound 270] | 300 to 5000
Cc1cc(CN[S+]([O-])C(C)(C)C)cc(N2Cc3ccc(-c4ccc(F)cc4-c4nncn4C)cc3C2=O)n1 (centres unmarked) [Compound 285] | 300 to 5000
Cc1cc(CNCC2CC2)cc(N2Cc3ccc(-c4ccc(F)cc4-c4ncco4)cc3C2=O)n1 [Compound 287] | 80 to 300
Cc1cc(CN2CCC[C@H]2CO)cc(N2Cc3ccc(-c4ccc(F)cc4-c4nncn4C)cc3C2=O)n1 [Compound 288] | 300 to 5000
CO[C@H]1CCN(Cc2cc(C)nc(N3Cc4ccc(-c5ccc(F)cc5-c5nncn5C)cc4C3=O)c2)C1 [Compound 290] | 300 to 5000
Cc1cc(CNCC2(O)COC2)cc(N2Cc3ccc(-c4ccc(F)cc4-c4nncn4C)cc3C2=O)n1 [Compound 291] | 80 to 300
Cc1cc(CNCC2(C)COC2)cc(N2Cc3ccc(-c4ccc(F)cc4-c4nncn4C)cc3C2=O)n1 [Compound 292] | 80 to 300
Cc1cc(CN[C@H](CO)C(C)C)cc(N2Cc3ccc(-c4ccc(F)cc4-c4nncn4C)cc3C2=O)n1 [Compound 297] | 80 to 300
Cc1cc(CNC(C)(C)C)cc(N2Cc3ccc(-c4ccc(F)cc4-c4nncn4C)cc3C2=O)n1 [Compound 299] | 300 to 5000
Cc1cc(CNCCO)cc(N2Cc3ccc(-c4ccc(F)cc4-c4nncn4C)cc3C2=O)n1 [Compound 301] | 80 to 300
COCCN(Cc1cc(C)nc(N2Cc3ccc(-c4ccc(F)cc4-c4nncn4C)cc3C2=O)c1)CC1CC1 [Compound 313] | 300 to 5000
Cc1cc(CNCC2(CO)CC2)cc(N2Cc3ccc(-c4ccc(F)cc4-c4nncn4C)cc3C2=O)n1 [Compound 316] | 80 to 300
CCN1CCC[C@@H]1CNCc1cc(C)nc(N2Cc3ccc(-c4ccc(F)cc4-c4nncn4C)cc3C2=O)c1 [Compound 317] | 300 to 5000
Cc1cc(CNCC(O)CN)cc(N2Cc3ccc(-c4ccc(F)cc4-c4nncn4C)cc3C2=O)n1 (centres unmarked) [Compound 318] | 300 to 5000
Cc1cc(CN[C@H](CO)CC(C)C)cc(N2Cc3ccc(-c4ccc(F)cc4-c4nncn4C)cc3C2=O)n1 [Compound 322] | 80 to 300
Cc1cc(CNC(C2CC2)C(F)(F)F)cc(N2Cc3ccc(-c4ccc(F)cc4-c4nncn4C)cc3C2=O)n1 (centres unmarked) [Compound 324] | 300 to 5000

Other lines, results leading:

IC50 [nM] | SMILES
80 to 300 | COC1(CNCc2cc(C)nc(N3Cc4ccc(-c5ccc(F)cc5-c5nncn5C)cc4C3=O)c2)CC1 [Compound 137, 6-(4-Fluoro-2-(4-methyl-4H-1,2,4-triazol-3-yl)phenyl)-2-(4-((((1-methoxycyclopropyl)methyl)amino)methyl)-6-methylpyridin-2-yl)isoindolin-1-one]
80 to 300 | C[C@H]1CCCN(Cc2ccnc(N3Cc4ccc(C5(Cc6nncn6C)COC5)cc4C3=O)c2)C1 [Compound 149]
80 to 300 | CC(Cc1nncn1C)c1cnc2c(c1)C(=O)N(c1cc(CN3CCC[C@H](C)C3)cc(Cl)n1)C2 (some centres unmarked) [Compound 150]
80 to 300 | Cn1cnnc1CC1(c2ccc3c(c2)C(=O)N(c2cc(CNCC4CCCCC4)cc(Cl)n2)C3)COC1 [Compound 153]
80 to 300 | C[C@H]1CCCN(Cc2cc(Cl)nc(N3Cc4ccc(CCc5nncn5C)cc4C3=O)c2)C1 [Compound 154]
80 to 300 | Cn1cnnc1CC1(c2ccc3c(c2)C(=O)N(c2cc(CN4CCCC(O)CC4)cc(Cl)n2)C3)COC1 (centres unmarked) [Compound 174]
80 to 300 | Cn1cnnc1CC1(c2ccc3c(c2)C(=O)N(c2cc(CNCC4COC4)cc(Cl)n2)C3)COC1 [Compound 183]
80 to 300 | Cn1cnnc1CC1(c2ccc3c(c2)C(=O)N(c2cc(CN4CCC(C)(F)C4)cc(Cl)n2)C3)COC1 (centres unmarked) [Compound 184]
80 to 300 | Cc1nc(CNCC2CC2)cc(N2Cc3ccc(C4(Cc5nncn5C)COC4)cc3C2=O)n1 [Compound 186]
80 to 300 | Cn1cnnc1CC1(c2ccc3c(c2)C(=O)N(c2cc(CNCc4nccs4)cc(Cl)n2)C3)COC1 [Compound 194]
80 to 300 | Cn1cnnc1CC1(c2ccc3c(c2)C(=O)N(c2cc(CNCc4ccccn4)cc(Cl)n2)C3)COC1 [Compound 203]
80 to 300 | Cn1cnnc1CC1(c2ccc3c(c2)C(=O)N(c2cc(CNCC4(C(F)(F)F)CC4)cc(Cl)n2)C3)COC1 [Compound 204]
80 to 300 | Cc1ccc(CNCc2cc(Cl)nc(N3Cc4ccc(C5(Cc6nncn6C)COC5)cc4C3=O)c2)o1 [Compound 226]
80 to 300 | Cn1cnnc1CC1(c2ccc3c(c2)C(=O)N(c2cc(CNC45CC(C4)C5)cc(Cl)n2)C3)COC1 [Compound 235]
80 to 300 | Cn1cnnc1CC1(c2ccc3c(c2)C(=O)N(c2cc(CNc4ccccn4)cc(Cl)n2)C3)COC1 [Compound 238]
80 to 300 | Cn1cnnc1CC1(c2ccc3c(c2)C(=O)N(c2cc(CNCC4(C#N)CCC4)cc(Cl)n2)C3)COC1 [Compound 243]
80 to 300 | CC1CCC(CNCc2cc(Cl)nc(N3Cc4ccc(C5(Cc6nncn6C)COC5)cc4C3=O)c2)O1 (centres unmarked) [Compound 250]
80 to 300 | CCCC(Cc1nncn1C)c1ccc2c(c1)C(=O)N(c1cc(CNCC3CC3)cc(Cl)n1)C2 (centres unmarked) [Compound 252]
80 to 300 | COc1cc(CNCC2CCC2)cc(N2Cc3ccc(C(C)Cc4nncn4C)cc3C2=O)n1 (centres unmarked) [Compound 254]
< 80 | Cc1cc(CN2CCC3(CCC3)C2)cc(N2Cc3ccc(-c4ccc(F)cc4-c4nncn4C)cc3C2=O)n1 [Compound 258]
80 to 300 | Cc1cc(CNCC2CC2)cc(N2Cc3ncc(-c4ccc(Cl)cc4-c4nncn4C)cc3C2=O)n1 [Compound 264]
80 to 300 | Cc1cc(CNCC2CC2)cc(N2Cc3ccc(-c4cc(F)c(F)cc4-c4nncn4C)cc3C2=O)n1 [Compound 267]
80 to 300 | Cc1cc(CNCC2CC2)cc(N2Cc3ccc(-c4ccc(Cl)cc4-c4cc[nH]n4)cc3C2=O)n1 [Compound 271]
80 to 300 | Cc1cc(CNCC2CC2)cc(N2Cc3ccc(-c4ccc(C(F)(F)F)cc4-c4nncn4C)cc3C2=O)n1 [Compound 272]
80 to 300 | Cc1cc(CNC(C)(C)CCO)cc(N2Cc3ccc(-c4ccc(Cl)cc4-c4nncn4C)cc3C2=O)n1 [Compound 276]
80 to 300 | Cc1cc(CNS(C)(=O)=O)cc(N2Cc3ccc(-c4ccc(F)cc4-c4nncn4C)cc3C2=O)n1 [Compound 283]
80 to 300 | Cc1cc(CN2CCC[C@@H]2CO)cc(N2Cc3ccc(-c4ccc(F)cc4-c4nncn4C)cc3C2=O)n1 [Compound 286]
< 80 | Cc1cc(CNCC2CC2)cc(N2Cc3ccc(-c4ccc(F)cc4-c4nocc4C)cc3C2=O)n1 [Compound 289, 2-(4-(((Cyclopropylmethyl)amino)methyl)-6-methylpyridin-2-yl)-6-(4-fluoro-2-(4-methylisoxazol-3-yl)phenyl)isoindolin-1-one]
< 80 | Cc1cc(CN(C)CC2CC2)cc(N2Cc3ccc(-c4ccc(F)cc4-c4nncn4C)cc3C2=O)n1 [Compound 312]
